Data set [1] is described as follows: Thermal stability of NBTPT at urea melt temperature by HPLC. The format is physicochemical. As to the method:
The thermal stability of neat NBTPT and NBTPT contained within a core, as disclosed herein, can be determined by HPLC. For example, neat NBTPT or a core containing NBTPT can be exposed to 135° C. (133-135° C. is the typical temperature range of a urea melt) and can continuously be analyzed by HPLC every 5 min, until 30 min on analysis was reached. Such data will determine whether the NBTPT has better thermal stability when contained within a core, as compared to neat NBTPT.
Stability of inhibitors in urea melt: Extrudates containing inhibitors were tested for their stability in urea melt using HPLC and LCMS.

The next data set concerns Upland Crowley Soil. In words: Nitrogen loss after 17 days of exposure to soil (IFDC). The protocol: The nitrogen volatilization was measured in different soils for several samples and compared to products on the market, such as Agrotain®, ESN®, and SuperU®. The samples were tested in Greenville soil, Crowley soil, and Brownfield Soil. Crowley soil consists of very deep, somewhat poorly drained, very slowly permeable soils that formed in clayey fluviomarine deposits of the Pleistocene age. The soil exist in nearly level to very gently sloping soils and occur on flat coastal plains terraces. The slope is dominantly less than 1 percent but ranges to up to 3 percent. The mean annual precipitation is about 1549 mm (61 in), and the mean annual air temperature is about 20 degrees C. (68 degrees F.), where the soil is found. The soil is fine, […], and […].

For the compound `CCCCNP(N)(N)=S` [NBTPT, N-(n-butyl) thiophosphoric triamide], in data set [1] (neat, exposed to 133-135° C. over time, FIG. 13), the “thermal stability of neat NBTPT” value is “decomposes at this temperature over time”. For the same compound, the “thermal stability of NBTPT within a fertilizer core particle” value in data set [1] (within a core exposed to 133-135° C. over time, FIG. 14) was “stable over time and does not decompose”.

Regarding `NC(N)=O` [Urea, urea], in the data set on Upland Crowley Soil (17 days of exposure to Upland Crowley Soil), the “Cumulative Nitrogen Loss (mg) by 17 Days” value is listed as 299.08 mg. Further, the “% Urea” value in the data set on Upland Crowley Soil (nitrogen loss relative to urea, 17 days, Upland Crowley Soil) amounted to 100%. Moreover, the “% Reduction in Nitrogen Loss” value in the data set on Upland Crowley Soil (versus urea, 17 days, Upland Crowley Soil) worked out at 0%.

The values above are taken from patent US11104618B2, “Fertilizer composition and methods of making and using same” (SABIC GLOBAL TECHNOLOGIES B.V., priority 2015, dated 2021).
